Measurements: ChEMBL document CHEMBL4190187, “Discovery of pyrazolopyrimidine derivatives as novel inhibitors of ataxia telangiectasia and rad3 related protein (ATR)” (Bioorg Med Chem Lett, 2017)

Assays:
[1] = biological target: Inhibitor of nuclear factor kappa-B kinase subunit alpha (Homo sapiens) (UniProt O15111); test: Inhibition of recombinant full-length human IKKalpha at 1 uM using peptide as substrate after 40 mins in presence of [gamma-33P]ATP by scintillation counting method
[2] = biological target: Proto-oncogene tyrosine-protein kinase receptor Ret (Homo sapiens) (UniProt P07949); test: Inhibition of recombinant human RET (658 to end residues) at 1 uM using KKKSPGEYVNIEFG as substrate after 40 mins in presence of [gamma-33P]ATP by scintillation counting method
Proto-oncogene tyrosine-protein kinase receptor Ret (Homo sapiens), sequence (P07949 whole entry): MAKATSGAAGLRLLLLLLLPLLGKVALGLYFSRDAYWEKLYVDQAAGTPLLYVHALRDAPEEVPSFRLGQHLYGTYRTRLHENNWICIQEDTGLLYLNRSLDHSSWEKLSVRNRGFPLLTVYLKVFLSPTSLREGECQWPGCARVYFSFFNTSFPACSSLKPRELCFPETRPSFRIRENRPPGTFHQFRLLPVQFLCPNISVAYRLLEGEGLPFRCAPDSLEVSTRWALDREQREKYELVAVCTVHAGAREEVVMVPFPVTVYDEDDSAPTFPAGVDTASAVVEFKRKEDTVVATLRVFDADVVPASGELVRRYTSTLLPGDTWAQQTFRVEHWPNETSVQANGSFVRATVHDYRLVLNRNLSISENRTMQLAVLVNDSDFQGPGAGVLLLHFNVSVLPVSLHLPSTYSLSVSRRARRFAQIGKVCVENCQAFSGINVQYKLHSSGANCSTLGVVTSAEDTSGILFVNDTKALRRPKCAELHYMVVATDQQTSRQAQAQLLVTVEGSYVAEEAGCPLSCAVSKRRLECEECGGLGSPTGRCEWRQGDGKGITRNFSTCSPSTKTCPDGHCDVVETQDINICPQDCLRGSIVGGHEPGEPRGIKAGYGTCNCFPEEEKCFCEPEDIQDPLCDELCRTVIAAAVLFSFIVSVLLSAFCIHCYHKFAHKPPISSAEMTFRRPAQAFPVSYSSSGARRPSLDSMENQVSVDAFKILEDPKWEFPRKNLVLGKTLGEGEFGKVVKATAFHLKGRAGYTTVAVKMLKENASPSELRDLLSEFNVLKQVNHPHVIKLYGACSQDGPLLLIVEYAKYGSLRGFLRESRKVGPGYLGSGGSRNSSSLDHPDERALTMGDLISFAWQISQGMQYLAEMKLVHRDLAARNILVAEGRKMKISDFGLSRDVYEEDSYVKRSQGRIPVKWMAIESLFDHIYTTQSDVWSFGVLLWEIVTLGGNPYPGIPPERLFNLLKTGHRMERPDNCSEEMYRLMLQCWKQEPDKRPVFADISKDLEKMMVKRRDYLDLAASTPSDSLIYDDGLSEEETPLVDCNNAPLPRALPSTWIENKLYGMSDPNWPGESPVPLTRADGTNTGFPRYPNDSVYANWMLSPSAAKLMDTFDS

[3] = tested on: Epidermal growth factor receptor (Homo sapiens), P00533 [L858R,T790M]; test: Inhibition of recombinant human EGFR T790M/L858R double mutant (696 to end residues) at 1 uM using GGMEDIYFEFMGGKKK as substrate after 40 mins in presence of [gamma-33P]ATP by scintillation counting method
[4] = tested on: Platelet-derived growth factor receptor alpha (Homo sapiens), P16234 [V561D]; test: Inhibition of recombinant human PDGFRalpha V561D mutant (550 to end residues) at 1 uM using GGMEDIYFEFMGGKKK as substrate after 40 mins in presence of [gamma-33P]ATP by scintillation counting method
[5] = biological target: Dual specificity mitogen-activated protein kinase kinase 6 (Homo sapiens) (UniProt P52564); test: Inhibition of recombinant human MKK6 (4 to end residues) at 1 uM using inactive SAPK2a as substrate after 40 mins in presence of [gamma-33P]ATP by scintillation counting method
[6] = biological target: PAS domain-containing serine/threonine-protein kinase (Homo sapiens) (UniProt Q96RG2); test: Inhibition of recombinant human PASK (995 to end residues) at 1 uM using KKLNRTLSFAEPG as substrate after 40 mins in presence of [gamma-33P]ATP by scintillation counting method
[7] = tested on: Angiopoietin-1 receptor (Homo sapiens), Q02763 [R849W]; test: Inhibition of recombinant activated human Tie2 R849W mutant (771 to end residues) at 1 uM using EFPIYDFLPAKKK as substrate after 40 mins in presence of [gamma-33P]ATP by scintillation counting method
[8] = biological target: Ephrin type-A receptor 5 (Homo sapiens) (UniProt P54756); test: Inhibition of recombinant human EPHA5 (655 to 956 residues) at 1 uM using poly(Glu,Tyr) 4:1 as substrate after 40 mins in presence of [gamma-33P]ATP by scintillation counting method
[9] = biological target: FKBP12A/mTOR (Homo sapiens) (UniProt P62942+P42345); test: Inhibition of recombinant full-length human mTOR/FKBP12 at 1 uM after 40 mins in presence of [gamma-33P]ATP by scintillation counting method; format: protein-complex assay
FKBP12A/mTOR (Homo sapiens), sequence (P62942 2-108 limits assumed, other chains not shown): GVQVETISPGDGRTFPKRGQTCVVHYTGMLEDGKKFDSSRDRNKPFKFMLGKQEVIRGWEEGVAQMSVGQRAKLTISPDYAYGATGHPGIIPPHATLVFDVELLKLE

[10] = tested on: Tyrosine-protein kinase ABL1 (Homo sapiens), P00519 [M351T]; test: Inhibition of recombinant human Abl M351T mutant (27 to end residues) at 1 uM using EAIYAAPFAKKK as substrate after 40 mins in presence of [gamma-33P]ATP by scintillation counting method
[11] = biological target: Homeodomain-interacting protein kinase 1 (Homo sapiens) (UniProt Q86Z02); test: Inhibition of recombinant human HIPK1 (158 to 555 residues) at 1 uM using myelin basic protein as substrate after 40 mins in presence of [gamma-33P]ATP by scintillation counting method
Homeodomain-interacting protein kinase 1 (Homo sapiens), sequence (Q86Z02 whole entry, looked up, the tested form may be a part): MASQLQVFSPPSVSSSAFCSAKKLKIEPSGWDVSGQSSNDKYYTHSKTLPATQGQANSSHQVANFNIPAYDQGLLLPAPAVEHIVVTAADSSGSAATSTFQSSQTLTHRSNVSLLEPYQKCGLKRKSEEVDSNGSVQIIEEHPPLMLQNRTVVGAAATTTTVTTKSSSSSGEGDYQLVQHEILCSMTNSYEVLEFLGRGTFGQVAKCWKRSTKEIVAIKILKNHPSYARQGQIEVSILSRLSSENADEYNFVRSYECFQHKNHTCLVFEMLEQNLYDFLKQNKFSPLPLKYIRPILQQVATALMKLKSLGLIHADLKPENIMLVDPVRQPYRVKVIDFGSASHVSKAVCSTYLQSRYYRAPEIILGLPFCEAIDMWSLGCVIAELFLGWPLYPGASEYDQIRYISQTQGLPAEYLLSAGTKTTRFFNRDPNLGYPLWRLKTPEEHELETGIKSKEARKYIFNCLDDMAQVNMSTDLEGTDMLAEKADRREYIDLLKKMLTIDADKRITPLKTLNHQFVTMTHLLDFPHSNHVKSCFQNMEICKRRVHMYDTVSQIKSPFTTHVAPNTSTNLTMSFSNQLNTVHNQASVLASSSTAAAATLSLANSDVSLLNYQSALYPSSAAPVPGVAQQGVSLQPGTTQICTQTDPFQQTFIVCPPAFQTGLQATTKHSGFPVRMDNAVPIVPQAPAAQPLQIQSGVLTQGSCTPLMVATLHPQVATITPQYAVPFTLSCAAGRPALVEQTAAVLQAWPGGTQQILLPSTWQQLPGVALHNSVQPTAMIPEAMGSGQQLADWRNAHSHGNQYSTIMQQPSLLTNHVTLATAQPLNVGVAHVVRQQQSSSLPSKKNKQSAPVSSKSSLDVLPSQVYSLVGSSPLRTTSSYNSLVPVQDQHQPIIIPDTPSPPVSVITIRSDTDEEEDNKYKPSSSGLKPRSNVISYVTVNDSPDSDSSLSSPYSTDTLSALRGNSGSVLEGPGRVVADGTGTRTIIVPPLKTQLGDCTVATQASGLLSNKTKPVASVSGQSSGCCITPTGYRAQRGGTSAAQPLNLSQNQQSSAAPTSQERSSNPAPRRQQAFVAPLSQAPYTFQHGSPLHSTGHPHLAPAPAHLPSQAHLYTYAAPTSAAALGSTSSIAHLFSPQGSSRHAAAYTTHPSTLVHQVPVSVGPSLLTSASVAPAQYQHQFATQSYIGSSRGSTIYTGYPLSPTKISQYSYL

[12] = biological target: Fibroblast growth factor receptor 4 (Homo sapiens) (UniProt P22455); test: Inhibition of recombinant human FGFR4 (442 to 755 residues) at 1 uM using poly(Glu,Tyr) 4:1 as substrate after 40 mins in presence of [gamma-33P]ATP by scintillation counting method
Fibroblast growth factor receptor 4 (Homo sapiens), sequence (P22455 22-802 limits assumed): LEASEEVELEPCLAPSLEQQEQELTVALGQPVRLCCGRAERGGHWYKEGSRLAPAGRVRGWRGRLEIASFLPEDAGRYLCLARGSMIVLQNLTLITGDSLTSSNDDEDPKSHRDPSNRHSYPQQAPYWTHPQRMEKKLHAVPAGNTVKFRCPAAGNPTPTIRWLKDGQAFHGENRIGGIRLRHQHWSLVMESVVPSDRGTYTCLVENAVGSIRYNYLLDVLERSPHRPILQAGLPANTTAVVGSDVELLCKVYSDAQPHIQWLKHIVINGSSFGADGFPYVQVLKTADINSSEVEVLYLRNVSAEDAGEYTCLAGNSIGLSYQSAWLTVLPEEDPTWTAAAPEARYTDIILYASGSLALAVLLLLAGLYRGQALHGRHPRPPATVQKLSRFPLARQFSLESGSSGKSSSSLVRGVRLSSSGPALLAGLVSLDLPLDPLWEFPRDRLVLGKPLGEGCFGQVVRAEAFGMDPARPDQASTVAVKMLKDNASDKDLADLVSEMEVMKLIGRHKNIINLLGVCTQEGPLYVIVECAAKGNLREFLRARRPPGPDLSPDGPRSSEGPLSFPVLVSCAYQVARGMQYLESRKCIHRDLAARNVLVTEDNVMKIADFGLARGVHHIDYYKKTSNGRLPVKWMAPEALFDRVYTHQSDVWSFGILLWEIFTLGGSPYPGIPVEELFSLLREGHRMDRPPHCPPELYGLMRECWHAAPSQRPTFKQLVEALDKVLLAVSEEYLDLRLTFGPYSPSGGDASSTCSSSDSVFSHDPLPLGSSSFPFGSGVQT

[13] = biological target: Calcium/calmodulin-dependent protein kinase type II subunit beta (Homo sapiens) (UniProt Q13554); test: Inhibition of recombinant human CAMK2beta (1 to 315 residues) at 1 uM using […] after 40 mins in presence of [gamma-33P]ATP by scintillation counting method
[14] = biological target: PI3-kinase p110-alpha/p85-alpha (Homo sapiens) (UniProt P27986+P42336); test: Inhibition of recombinant full-length human p110a/p85a at 1 uM using phosphatidylinositol 4,5-bisphosphate as substrate after 40 mins in presence of [gamma-33P]ATP by scintillation counting method; format: protein-complex assay
[15] = biological target: 5'-AMP-activated protein kinase catalytic subunit alpha-1 (Homo sapiens) (UniProt Q13131); test: Inhibition of recombinant full-length human AMPKalpha1 at 1 uM using AMARAASAAALARRR as substrate after 40 mins in presence of [gamma-33P]ATP by scintillation counting method
[16] = biological target: Protein kinase C iota type (Homo sapiens) (UniProt P41743); test: Inhibition of recombinant full-length human PKCiota at 1 uM using ERMRPRKRQGSVRRRV as substrate after 40 mins in presence of [gamma-33P]ATP by scintillation counting method
Protein kinase C iota type (Homo sapiens), sequence (P41743 whole entry): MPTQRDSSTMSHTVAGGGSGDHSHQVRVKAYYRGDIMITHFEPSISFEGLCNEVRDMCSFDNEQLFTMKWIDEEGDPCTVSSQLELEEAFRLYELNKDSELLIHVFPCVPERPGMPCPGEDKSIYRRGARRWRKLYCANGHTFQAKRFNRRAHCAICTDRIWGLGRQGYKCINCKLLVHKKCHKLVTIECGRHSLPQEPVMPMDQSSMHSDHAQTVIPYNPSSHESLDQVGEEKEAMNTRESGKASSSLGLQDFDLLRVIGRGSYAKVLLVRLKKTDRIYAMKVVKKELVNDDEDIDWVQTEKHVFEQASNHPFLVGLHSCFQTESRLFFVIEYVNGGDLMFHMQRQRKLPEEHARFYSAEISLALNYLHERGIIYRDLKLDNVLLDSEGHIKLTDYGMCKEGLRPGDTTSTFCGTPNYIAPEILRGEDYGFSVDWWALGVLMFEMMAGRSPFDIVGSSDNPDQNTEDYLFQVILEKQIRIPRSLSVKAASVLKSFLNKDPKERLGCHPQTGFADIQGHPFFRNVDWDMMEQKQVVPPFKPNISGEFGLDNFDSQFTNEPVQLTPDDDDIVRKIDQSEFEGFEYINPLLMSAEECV

[17] = biological target: Testis-specific serine/threonine-protein kinase 1 (Homo sapiens) (UniProt Q9BXA7); test: Inhibition of recombinant full-length human TSSK1 at 1 uM using KKKVSRSGLYRSPSMPENLNRPR as substrate after 40 mins in presence of [gamma-33P]ATP by scintillation counting method
Testis-specific serine/threonine-protein kinase 1 (Homo sapiens), sequence (Q9BXA7 whole entry, the tested form may be a part): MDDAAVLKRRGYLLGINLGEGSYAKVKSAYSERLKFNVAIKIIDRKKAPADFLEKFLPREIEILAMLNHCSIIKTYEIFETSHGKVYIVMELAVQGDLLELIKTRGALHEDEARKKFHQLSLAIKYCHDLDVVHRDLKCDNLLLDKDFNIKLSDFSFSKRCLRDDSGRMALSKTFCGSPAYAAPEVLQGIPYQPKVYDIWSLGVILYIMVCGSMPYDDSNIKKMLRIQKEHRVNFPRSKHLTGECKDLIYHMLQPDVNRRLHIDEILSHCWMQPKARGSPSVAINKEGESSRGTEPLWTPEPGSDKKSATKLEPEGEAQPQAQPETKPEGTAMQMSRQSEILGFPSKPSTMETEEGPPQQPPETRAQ

[18] = biological target: Receptor-interacting serine/threonine-protein kinase 2 (Homo sapiens) (UniProt O43353); test: Inhibition of recombinant human RIPK2 (1 to 299 residues) at 1 uM using myelin basic protein as substrate after 120 mins in presence of [gamma-33P]ATP by scintillation counting method
Receptor-interacting serine/threonine-protein kinase 2 (Homo sapiens), sequence (O43353 whole entry, the tested form may be a part): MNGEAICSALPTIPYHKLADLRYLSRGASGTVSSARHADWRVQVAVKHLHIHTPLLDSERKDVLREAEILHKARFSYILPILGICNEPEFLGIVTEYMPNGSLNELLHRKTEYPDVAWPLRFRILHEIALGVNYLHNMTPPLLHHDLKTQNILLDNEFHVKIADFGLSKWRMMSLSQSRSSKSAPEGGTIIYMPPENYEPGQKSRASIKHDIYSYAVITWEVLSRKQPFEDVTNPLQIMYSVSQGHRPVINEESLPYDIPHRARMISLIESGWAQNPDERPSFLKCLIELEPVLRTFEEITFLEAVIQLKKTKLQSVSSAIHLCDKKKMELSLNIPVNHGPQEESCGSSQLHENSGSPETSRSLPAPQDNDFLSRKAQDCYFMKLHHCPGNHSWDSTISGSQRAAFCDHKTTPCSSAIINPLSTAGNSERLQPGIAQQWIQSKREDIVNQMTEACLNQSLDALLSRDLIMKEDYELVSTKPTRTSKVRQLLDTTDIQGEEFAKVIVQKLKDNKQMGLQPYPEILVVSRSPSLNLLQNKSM

[19] = biological target: Interferon-induced, double-stranded RNA-activated protein kinase (Homo sapiens) (UniProt P19525); test: Inhibition of recombinant human PKR (501 to end residues) at 1 uM using AKRRRLSSLRA as substrate after 40 mins in presence of [gamma-33P]ATP by scintillation counting method
[20] = biological target: Serine/threonine-protein kinase DCLK3 (Homo sapiens) (UniProt Q9C098); test: Inhibition of recombinant human DCAMKL3 (345 to end residues) at 1 uM using KKLNRTLSFAEPG as substrate after 40 mins in presence of [gamma-33P]ATP by scintillation counting method
[21] = biological target: Bone morphogenetic protein receptor type-2 (Homo sapiens) (UniProt Q13873); test: Inhibition of recombinant human BMPR2 (172 to 734 residues) at 1 uM using myelin basic protein as substrate after 120 mins in presence of [gamma-33P]ATP by scintillation counting method
[22] = biological target: Homeodomain-interacting protein kinase 2 (Homo sapiens) (UniProt Q9H2X6); test: Inhibition of recombinant human HIPK2 (165 to 564 residues) at 1 uM using myelin basic protein as substrate after 40 mins in presence of [gamma-33P]ATP by scintillation counting method
[23] = biological target: Serine/threonine-protein kinase Nek6 (Homo sapiens) (UniProt Q9HC98); test: Inhibition of recombinant human NEK6 (2 to end residues) at 1 uM using FLAKSFGSPNRAYKK as substrate after 40 mins in presence of [gamma-33P]ATP by scintillation counting method
Serine/threonine-protein kinase Nek6 (Homo sapiens), sequence (Q9HC98 whole entry): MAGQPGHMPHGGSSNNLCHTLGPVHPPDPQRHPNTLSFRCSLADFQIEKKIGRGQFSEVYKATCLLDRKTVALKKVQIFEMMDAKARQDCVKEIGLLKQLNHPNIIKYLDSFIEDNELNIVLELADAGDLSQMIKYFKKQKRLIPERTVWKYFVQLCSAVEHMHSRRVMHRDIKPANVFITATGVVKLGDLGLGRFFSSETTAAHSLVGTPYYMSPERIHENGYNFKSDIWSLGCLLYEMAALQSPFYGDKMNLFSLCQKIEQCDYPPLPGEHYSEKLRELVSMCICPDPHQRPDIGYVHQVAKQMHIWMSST

Q: For CS(=O)(=O)c1ccc(-n2nc(-c3cnc4[nH]ccc4c3)c3c(N)ncnc32)cc1, which inhibition [1] is on record?
A: -5%

Q: What about the inhibition [2] of the same compound?
A: 95%

Q: What about the inhibition [3] of the same compound?
A: 27%

Q: What about the inhibition [4] of the same compound?
A: 66%

Q: What about the inhibition [5] of the same compound?
A: 1%

Q: What about the inhibition [6] of the same compound?
A: -6%

Q: What about the inhibition [7] of the same compound?
A: 1%

Q: What about the inhibition [8] of the same compound?
A: 8%

Q: What about the inhibition [9] of the same compound?
A: 78%

Q: What about the inhibition [10] of the same compound?
A: 77%

Q: What about the inhibition [11] of the same compound?
A: -2%

Q: And the inhibition [12]?
A: 3%

Q: And the inhibition [13]?
A: -4%

Q: What about the inhibition [14] of the same compound?
A: 6%

Q: What about the inhibition [15] of the same compound?
A: -9%

Q: What about the inhibition [16] of the same compound?
A: 5%

Q: What about the inhibition [17] of the same compound?
A: -8%

Q: What about the inhibition [18] of the same compound?
A: 70%

Q: What about the inhibition [19] of the same compound?
A: 13%

Q: And the inhibition [20]?
A: -8%

Q: What about the inhibition [21] of the same compound?
A: 2%

Q: And the inhibition [22]?
A: 3%

Q: What about the inhibition [23] of the same compound?
A: -4%
